Patent US20100316712A1, “PHARMACEUTICAL COMPOSITIONS FOR TREATMENT OF PARKINSON'S DISEASE AND RELATED DISORDERS” (Combinatorx, Incorporated, priority 2006, published 2010)
Where two headings read alike, the source gives them in different places.

What was measured:
[1] = Plasma carbidopa and levodopa after SINEMET CR alone or after carbidopa pre-dosing; type: in vivo; details: fed beagle dogs; for AUC(0-t): beagle, dog, plasma, po, read-out: AUC0-24; for increase in AUC0-24 / increase in peak concentrations: carbidopa pre-dosing + SINEMET CR vs SINEMET CR alone
Experimental: The following experiment was designed to determine if effective levodopa concentration in vivo is increased at the presence of a higher ratio of carbidopa to levodopa (as compared to that used in conventional therapy).
SINEMET® CR tablets (50 mg carbidopa/200 mg levodopa) were administered to fed beagle dogs either alone or after pre-dosing with 12.5 mg and 25 mg of carbidopa, and plasma concentrations of carbidopa and levodopa were measured over time (data not shown).

[2] = doses of 400 mg per day; cited from earlier work
[3] = in vivo; cited from earlier work
[4] = Carbidopa 12.5 mg pre-dose + SINEMET CR
[5] = Carbidopa 25 mg pre-dose + SINEMET CR
[6] = SINEMET CR (50 mg carbidopa/200 mg levodopa) alone

SMILES | AUC(0-t) [1, 4] [ng·h/mL] | AUC(0-t) [1, 5] [ng·h/mL] | AUC(0-t) [1, 6] [ng·h/mL] | increase in AUC0-24 [1] [%] | increase in peak concentrations [1] [%] | adverse effects [2] | fraction of an administered dose absorbed [3]
N[C@@H](Cc1ccc(O)c(O)c1)C(=O)O [Levodopa, L-3,4-dihydroxyphenylalanine] | 8640 ± 2060 | 7000 ± 3830 | 3900 ± 298 | ~100 | ~100 |  | 
C[C@@](Cc1ccc(O)c(O)c1)(NN)C(=O)O [Carbidopa] | 592 ± 303 | 956 ± 534 | 215 ± 43 | ~100 | ~100 | fails to elicit adverse effects | About 70%
